Each compound was assayed on Aβ42 production (assay: Quantification of Aβ peptide in culture of neurons from rat fetus brain (Aβ ELISA)). Details: Neuron, 72 h; rat primary neuronal culture (cerebral cortex, embryonic day 18 Wistar rats); medium collected three days after addition of the compound; Aβx-42 ELISA; read-out: Aβ42 production reducing effect IC50.
Assay type: cell-based
Protocol: Quantification of Aβ Peptide in Culture of Neurons from Rat Fetus Brain
(1) Rat Primary Neuronal Culture
Primary neuronal cultures were prepared from the cerebral cortex of embryonic day 18 Wistar rats (Charles River Japan, Yokohama, Japan). Specifically, the embryos were aseptically removed from pregnant rats under ether anesthesia. The brain was isolated from the embryo and immersed in an ice-cold L-15 medium (such as Invitrogen Corp. Cat #11415-064, Carlsbad, Calif., USA, or SIGMA L1518). The cerebral cortex was collected from the isolated brain under a stereoscopic microscope. The cerebral cortex fragments collected were enzymatically treated in an enzyme solution containing 0.25% trypsin (Invitrogen Corp. Cat #15050-065, Carlsbad, Calif., USA) and 0.01% DNase (Sigma D5025, St. Louis, Mo., USA) at 37° C. for 30 minutes to disperse the cells. Here, the enzymatic reaction was stopped by adding inactivated horse serum to the solution. The enzymatically treated solution was centrifuged at 1,500 rpm for five minutes to remove the supernatant. 5 to 10 mL of a medium was added to the resulting cell mass. Neurobasal medium (Invitrogen Corp. Cat #21103-049, Carlsbad, Calif., USA) supplemented with 2% B27 supplement (Invitrogen Corp. Cat #17504-044, Carlsbad, Calif., USA), 25 μM 2-mercaptoethanol (2-ME, WAKO Cat #139-06861, Osaka, Japan), 0.5 mM L-glutamine (Invitrogen Corp. Cat #25030-081, Carlsbad, Calif., USA), and Antibiotics-Antimycotics (Invitrogen Corp. Cat #15240-062, Carlsbad, Calif., USA) was used as the medium (Neurobasal/B27/2-ME). However, the above Neurobasal medium not supplemented with 2-ME (Neurobasal/B27) was used for the assay. The cells were redispersed by mild pipetting of the cell mass to which the medium was added. The cell dispersion was filtered through a 40-μm nylon mesh (Cell Strainer, Cat #35-2340, Becton Dickinson Labware, Franklin Lakes, N.J., USA) to remove the remaining cell mass, and thus a neuronal cell suspension was obtained. The neuronal cell suspension was diluted with the medium and then plated in a volume of 100 μL/well at an initial cell density of 5×10^5 cells/cm^2 in a 96-well polystyrene culture plate pre-coated with poly-L or D-lysine (Falcon Cat #35-3075, Becton Dickinson Labware, Franklin Lakes, N.J., USA coated with poly-L-lysine using the method shown below, or BIOCOAT™ cell environments Poly-D-lysine cell ware 96-well plate, Cat #35-6461, Becton Dickinson Labware, Franklin Lakes, N.J., USA). Poly-L-lysine coating was carried out as follows. 100 μg/mL of a poly-L-lysine (SIGMA P2636, St. Louis, Mo., USA) solution was aseptically prepared with a 0.15 M borate buffer (pH 8.5). […] of the solution was added to the 96-well polystyrene culture plate and incubated at room temperature for one or more hours or at 4° C. overnight or longer. Thereafter, the coated 96-well polystyrene culture plate was washed with sterile water four or more times, and then dried or rinsed with, for example, sterile PBS or medium, and used for cell plating. The plated cells were cultured in the culture plate at 37° C. in 5% CO2-95% air for one day. Then, the total amount of the medium was replaced with a fresh Neurobasal™/B27/2-ME medium, and then the cells were cultured for further three days.
The drug was added to the culture plate on Day 4 of culture as follows. The total amount of the medium was removed from the wells, and 180 μL/well of Neurobasal medium not containing 2-ME and containing 2% B-27 (Neurobasal/B27) was added thereto. A solution of the test compound in dimethyl sulfoxide (hereinafter abbreviated as DMSO) was diluted with Neurobasal/B27 to a concentration 10-fold higher than the final concentration. 20 μL/well of the dilution was added to and sufficiently mixed with the medium. The final DMSO concentration was 1% or less. Only DMSO was added to the control group.
The cells were cultured for three days after addition of the compound, and the total amount of the medium was collected. […]

| Structure (SMILES) | IC50 |
| --- | --- |
| C[C@H]1OC[C@]2(c3cc(NC(=O)c4cnc(OCF)cn4)ccc3F)N=C(N)SC[C@H]12 (relative stereo) [Example 57, N-[3-((4aS*,5R*,7aS*)-2-amino-5-methyl-4a,5-dihydro-4H-furo[3,4-d][1,3]thiazin-7a-yl)-4-fluorophenyl]-5-fluoromethoxypyrazine-2-carboxamide] | 3 nM |
| C[C@H]1OC[C@]2(c3cc(NC(=O)c4cnc(C(F)F)cn4)ccc3F)N=C(N)SC[C@H]12 (relative stereo) [Example 58, N-[3-((4aS*,5R*,7aS*)-2-amino-5-methyl-4a,5-dihydro-4H-furo[3,4-d][1,3]thiazin-7a-yl)-4-fluorophenyl]-5-difluoromethylpyrazine-2-carboxamide] | 7 nM |
| C[C@H]1OC[C@]2(c3cc(NC(=O)c4ccc(OC(F)F)cn4)ccc3F)N=C(N)SC[C@H]12 (relative stereo) [Example 59, N-[3-((4aS*,5R*,7aS*)-2-amino-5-methyl-4a,5-dihydro-4H-furo[3,4-d][1,3]thiazin-7a-yl)-4-fluorophenyl]-5-difluoromethoxypyridine-2-carboxamide] | 2 nM |
| C[C@H]1OC[C@]2(c3cc(NC(=O)c4ccncn4)ccc3F)N=C(N)SC[C@H]12 (relative stereo) [Example 60, N-[3-((4aS*,5R*,7aS*)-2-amino-5-methyl-4a,5-dihydro-4H-furo[3,4-d][1,3]thiazin-7a-yl)-4-fluorophenyl]-pyrimidine-4-carboxamide] | 12 nM |
| CO[C@H]1CC[C@]2(c3cc(NC(=O)c4ccc(C#N)cn4)ccc3F)N=C(N)SC[C@H]12 (relative stereo) [Example 63, N-[3-((4aS*,5S*,7aS*)-2-amino-5-methoxy-4a,5,6,7-tetrahydro-4H-cyclopenta[d][1,3]thiazin-7a-yl)-4-fluorophenyl]-5-cyanopyridine-2-carboxamide] | 11 nM |
| CO[C@H]1CC[C@]2(c3cc(NC(=O)c4cnc(OC(F)F)cn4)ccc3F)N=C(N)SC[C@H]12 (relative stereo) [Example 64, N-[3-((4aS*,5S*,7aS*)-2-amino-5-methoxy-4a,5,6,7-tetrahydro-4H-cyclopenta[d][1,3]thiazin-7a-yl)-4-fluorophenyl]-5-difluoromethoxypyrazine-2-carboxamide] | 8 nM |
| CO[C@@H]1CC[C@]2(c3cc(NC(=O)c4ccc(C#N)cn4)ccc3F)N=C(N)SC[C@H]12 (relative stereo) [Example 65, N-[3-((4aS*,5R*,7aS*)-2-amino-5-methoxy-4a,5,6,7-tetrahydro-4H-cyclopenta[d][1,3]thiazin-7a-yl)-4-fluorophenyl]-5-cyanopyridine-2-carboxamide] | 38 nM |
| NC1=N[C@@]2(c3cc(NC(=O)c4cnc(C(F)F)cn4)ccc3F)CCOC[C@H]2CS1 (relative stereo) [Example 79, N-[3-((4aS*,8aS*)-2-amino-4a,5,7,8-tetrahydro-4H-6-oxa-3-thia-1-azanaphthalen-8a-yl)-4-fluorophenyl]-5-difluoromethylpyrazine-2-carboxamide] | 28 nM |
| NC1=N[C@@]2(c3cc(NC(=O)c4cnc(OCF)cn4)ccc3F)CCOC[C@H]2CS1 (relative stereo) [Example 80, N-[3-((4aS*,8aS*)-2-amino-4a,5,7,8-tetrahydro-4H-6-oxa-3-thia-1-azanaphthalen-8a-yl)-4-fluorophenyl]-5-fluoromethoxypyrazine-2-carboxamide] | 8 nM |
| NC1=N[C@@]2(c3cc(NC(=O)c4ccc(OC(F)F)cn4)ccc3F)CCOC[C@H]2CS1 (relative stereo) [Example 81, N-[3-((4aS*,8aS*)-2-amino-4a,5,7,8-tetrahydro-4H-6-oxa-3-thia-1-azanaphthalen-8a-yl)-4-fluorophenyl]-5-difluoromethoxypyridine-2-carboxamide] | 14 nM |
